Measured values taken from publication PMC13126677 (Journal of Medicinal Chemistry, 2026).
Like-named read-outs stand apart in the source and are kept apart here.

Experiments:
[1] = system: E. romani venom; settings: venom 10 μg/egg, drug 1 μg/egg topical, 6 h; in words
Description: Fertile hens eggs were supplied on day 1 post fertilization from UK supplier MedEggs Ltd. Eggs were immediately placed horizontally to incubate at 37 °C until day 5 of development. Candling was conducted to mark the position of the embryo to guide windowing. Any infertile eggs were removed at this stage. To access the embryos, all fertile eggs were then windowed under laminar flow. In brief, 6–8 mL of albumin was removed using a 23G needle. The area marking the position of the embryo was then covered with medical tape, and a dish of shell removed using sharp dissection scissors. The exposed embryo was then covered using parafilm and the egg returned to the incubator overnight. Surviving embryos were then randomly allocated into groups of n = 5. […] Treatments were given in a total volume of 10 μL, administered directly onto (i.e., topically) the vitelline vein. Embryos were returned to the incubator immediately following dosing, and then observed at 1, 2, 4, and 6 h. Survival was monitored via the observation of a heartbeat. Venom pathology was captured using a Motic SMZ 171-TLED microscope system. In brief, at each observation time point (1, 2, 4, and 6 h post envenoming) images were captured using a Moticam X5 Wi-Fi camera. To track changes across the experimental time course, the imaging position was kept consistent at each time point for individual embryos.

[2] = system: SVMP activity of Calloselasma rhodostoma venom; settings: read-out: Inhibition of SVMP enzymatic activity EC50 CRH; C. rhodostoma venom; mean of n ≥ 3, range in brackets
Description: (§1) Throughout our medicinal chemistry campaign, compounds were evaluated for their ability to inhibit enzymatic SVMP toxin activity in vitro using a previously described fluorescent-based substrate cleavage assay against five medically important viper venoms, namely Echis romani (Roman’s carpet viper, West Africa), Crotalus atrox (Western diamondback rattlesnake, North America), Calloselasma rhodostoma (Malayan pit viper, South East Asia), Bothrops jararaca (jararaca, South America) and Bitis arietans (puff adder, Africa).
(§2) Compounds of interest were stamped onto 384-well plates at a volume of 0.91 μL at a concentration of 1 mM in 100% DMSO (D2650, Sigma-Aldrich). Positive and negative control wells were stamped with 0.91 μL of 100% DMSO. To the test wells and the venom-only positive control wells, 15 μL of venom diluted to 0.066 μg/mL in PBS was added, giving a final amount of 1 μg/well. In the no venom negative control wells, 15 μL of PBS was added. The plates were then sealed, span briefly in a Platefuge (C2000, Benchmark Scientific) and incubated at 37 °C for 25 min to allow venom-inhibitor interaction. […] Dose response plates were conducted identically and the % inhibition values at each dose were used to draw EC50 curves to estimate the EC50 value of each compound tested. All SVMP experiments were repeated independently a minimum of three times.

[3] = physchem; settings: organic solvent / aqueous solvent at pH 7.4, pH 7.4
Description: (§3) The DMPK properties data described in the manuscript were measured via a high-throughput platform by AstraZeneca (United Kingdom).

[4] = in vivo; settings: male, CD1, mouse, plasma, po, 20 mg/kg
Description: (§4) The in vivo PK study was performed by ChemPartner (Shanghai, China). […] Mice had access to food and water throughout the pre- and postdose sampling period. […] Approximately 110 μL whole blood/time point (sampling at 0.083, 0.25, 0.5, 1, 2, 4, 8, and 24 h) was collected via serial bleeding in K2EDTA tube via facial vein. The blood sample was kept on ice and centrifuged (2,000 × g, 4 °C, 5 min) within 15 min postsampling. The plasma drug concentrations were determined by LC-MS/MS (ESI, Triple Quad 5500 System) on positive ion mode and using dexamethasone as internal standard. Liquid chromatography (LC) was performed using a 2.5 μm Xbridge BEH-C18 column (2.1 mm × 50 mm) at 60 °C with a rate of 0.6 mL/min. The following mobile phases were used; A: Water (+0.025% Formic acid and 1.0 mM ammonium acetate), B: Methanol (+0.025% Formic acid and 1.0 mM ammonium acetate).

[5] = system: SVMP activity of Bitis arietans venom; settings: read-out: Inhibition of SVMP enzymatic activity EC50 BAR; B. arietans venom; mean of n ≥ 3, range in brackets
Description: as §1, §2

[6] = in vitro; settings: human, microsomes
Description: as §3

[7] = system: E. romani venom
Description: Room conditions were set at 20–24 °C and 45–65% humidity, 12/12 h light cycles. Mice were allowed ad libitum access to Picolab 5R53 food (Lab Diet, USA) and reverse osmosis water and housed with nesting material and environmental enrichment materials.
Mice weighed 22–28 g at the start of study. Five milligram or kilogram morphine was administered subcutaneously as an analgesic 15 min prior to venom administration. […] No criteria for including or excluding animals was applied, and all data points were included in analyses. Animals were monitored for humane end points (loss of righting reflex, seizure, external hemorrhage) for 8 h to encompass the drug exposure time frame, and any animals showing such signs were immediately euthanized by rising concentrations of carbon dioxide. All observations were performed by mixed gender experimenters who were blinded to the drug group allocation. Time of death, number of deaths and number of survivors were recorded, where deaths and times of death represent implementation of humane end point-dictated euthanasia. Kaplan–Meier survival plots were generated using GraphPad Prism 9.0 (GraphPad Software, San Diego, USA).

[8] = system: SVMP activity of Bothrops jararaca venom; settings: read-out: Inhibition of SVMP enzymatic activity EC50 BJA; B. jararaca venom; mean of n ≥ 3, range in brackets
Description: as §1, §2

[9] = in vitro; settings: rat, hepatocytes
Description: as §3

[10] = system: SVMP activity of Echis romani venom; settings: read-out: Inhibition of SVMP enzymatic activity EC50 ERO; E. romani venom; mean of n ≥ 3, range in brackets; listed as 23 (DC-174)
Description: as §1, §2

[11] = system: E. romani P–I and P–III SVMPs; settings: drug 2 μM, gel
Description: (§5) Evaluation of SVMP toxin activity of human prothrombin and fibrinogen and inhibition by test compounds was performed by SDS-PAGE degradation gel electrophoresis using venom-purified toxins. P–I, P–II and P–III SVMPs were isolated using an adaptation of the method of Howes et al. Whole E. romani venom (15 mg) was initially separated using size exclusion chromatography (SEC) on a 120 mL column of Superdex 75 (Cytiva). The P–II SVMP (22 kDa) was pure and ready to use at this stage. P–I and P–III SVMP containing peaks were separately applied to a 1 mL high resolution hydrophobic interaction chromatography (HIC) column (SOURCE 15PHE, Cytiva). […] The P–I eluted as two peaks of proteins with identical molecular weight (21 kDa) which were combined back together. The P–III-containing fraction from SEC eluted from HIC as multiple peaks of P–III SVMP isoforms, well separated from the earlier eluting L-amino acid oxidase and high molecular weight C-type lectin-like proteins. The proteins in the PIII-containing peaks were pooled back together.
Prothrombin degradation was measured by incubating 2 μg of human prothrombin (Hematologic Technologies INC) in the presence or absence of drug and the P–I, P–II, and P–III SVMPs. […] Briefly, drug or DMSO and 200 ng of purified SVMP isoform were incubated for 30 min at 37 °C in a water bath, after which 2 μg of human prothrombin were added and the samples incubated for another hour at 37 °C. Drug concentrations used were 2 μM for P–I and P–III SVMPs. Samples were then processed for loading onto a 4–20% SDS-PAGE gel (Biorad) and were run under reducing conditions for 45 min at 180 V. The gels were stained with Coomassie Brilliant Blue R250 and degradation profiles were visualized and images captured using a GelDoc (Biorad).

[12] = system: SVMP activity of five viper venoms (E. romani, C. atrox, C. rhodostoma, B. jararaca, B. arietans); settings: read-out: broad-spectrum inhibition of SVMP activity EC50s; range over the five venoms
Description: as §1, §2

[13] = system: mouse fibrinogen and prothrombin; settings: in words
Description: Mouse plasma samples were diluted 1:50 (antifibrinogen blots) and 1:30 (antiprothrombin blots) and 5 μL was run on 4–20% SDS-PAGE gels (BioRad) at 180 V for 1 h. The separated proteins were then transferred onto nitrocellulose membranes using semidry transfer on a Trans-Blot Turbo (BioRad) using the following conditions: 1.3 A, 25 V, 7 min. Blots were then stained for 5 min with Revert 700 Total Protein Stain (LICORbio) following the manufacturer’s protocol and imaged on the 700 nm channel on an Odyssey Fc Imaging System to detect protein abundance and ensure equal loading. Membranes were then destained in 0.1 M NaOH, 30% methanol for no longer than 10 min, then blocked in 5% milk TBST for 1 h. The primary antibodies: antifibrinogen (ab34269, rabbit polyclonal, Abcam) and antiprothrombin (PA5-77976, rabbit polyclonal, Thermo Fisher) were diluted 1:1,500 and 1:1,000, respectively, in 5% milk TBST. The membranes were incubated with the appropriate primary antibody for 1.5 h at room temperature, followed by three 5 min washes in TBST. Blots were then incubated for 1 h at room temperature with an IRDye 800CW donkey anti-rabbit IgG secondary antibody (1:15000, LICORbio), followed by three 5 min washes in TBS. The blots were imaged on an Odyssey Fc Imaging System at both 700 and 800 nm.

[14] = mouse
Description: as §4

[15] = system: procoagulant activity of B. jararaca venom; settings: read-out: Coagulation assay EC50 B. jararaca; 100 ng B. jararaca venom, citrated bovine plasma; mean of n ≥ 3, range in brackets
Description: (§6) This assay consists of preincubating venom (or venom vehicle control) at a species-specific dose with the compound of interest (or compound vehicle control), then adding citrated bovine plasma to the wells and activating the clotting cascade with calcium chloride. […] Compounds of interest were stamped onto 384-well plates at a volume of 0.5 μL and a concentration of 10 mM in 100% DMSO. Positive and negative control wells were stamped with 0.5 μL of 100% DMSO. To the test wells and the venom-only positive control wells, 10 μL of venom diluted to 1 μg/mL (E. romani) or 10 μg/mL (B. jararaca) in PBS was added, giving a final well amount of 10 ng (E. romani) or 100 ng (B. jararaca) per well. In the no venom negative control wells, 10 μL of PBS was added. The plates were then sealed, span briefly in a Platefuge and incubated at 37 °C for 25 min to allow venom-inhibitor interaction. While the plates were incubating, sufficient citrated bovine plasma (S0260, BioWest) to allow 20 μL/well was centrifuged at 3120 RCF for 5 min to remove any residual cellular debris and the supernatant was collected. The 384-well plates were removed from the incubator for 5 min to allow acclimation to room temperature, then 20 μL/well of 20 mM CaCl2 was added and immediately followed by the addition of 20 μL/well of centrifuged citrated bovine plasma, both via a Multidrop Combi reagent dispenser (5840330, Thermo Fisher Scientific). The plates were then read kinetically using an absorbance protocol on a CLARIOStar microplate reader at 595 nm for 60 min. […] Dose response plates were conducted identically and the % inhibition values at each dose were used to draw EC50 curves to estimate the EC50 value of each compound tested. All coagulation experiments were repeated independently a minimum of three times.

[16] = system: E. romani P–I, P–II and P–III SVMPs; settings: P–I, P–II, P–III SVMPs; drug 10 μM (P–I, P–II), 400 nM (P–III); gel
Description: as §5
Degradation of human fibrinogen was measured in a similar manner. Human fibrinogen (Merck) was added at 5 μg/reaction and incubated with the different SVMP isoforms in the presence or absence of drugs. Drug concentrations used were 10 μM for P–I and P–II SVMP and 400 nM for P–III SVMP. The reactions consisted of 200 ng SVMP isoform and the appropriate concentration of drug, which were then incubated for 30 min at 37 °C in a water bath. Five micrograms of fibrinogen were then added and the samples incubated for another hour at 37 °C, before separation by SDS-PAGE as described above.

[17] = system: E. romani venom in human whole blood; settings: venom 60 ng plus drug 5 μM; mean
Description: We measured the coagulation profile of whole human blood using thromboelastography, and compared with venom stimulated, and venom and drug stimulated, clotting profiles. […] Blood samples were collected in ACD-A blood tubes. Using a ROTEM delta (Werfen) a final volume of 300 μL blood per reaction was pipetted into prewarmed cups (37 °C), with four channels per run. Whole blood was warmed for 5 min at 37 °C, during which time 12 μL of E. romani venom (5 ng/nL concentration, 60 ng dose), 15 μL of DMSO vehicle or test compounds (5 μM final concentration, 0.2% DMSO), and 20 μL of Startem reagent (CaCl2, Werfen) was prepared. The maximum incubation time of venom and inhibitors was 2 min, before 253 μL of whole blood were added and mixed before reading on the ROTEM delta. The commonly used parameters of clotting time and maximum clot firmness (MCF) were reported, from a minimum of three independent measurements per experimental group.

[18] = system: procoagulant activity of E. romani venom; settings: read-out: Coagulation assay EC50 E. romani; 10 ng E. romani venom, citrated bovine plasma; mean of n ≥ 3, range in brackets
Description: as §6

[19] = system: human plasma protein
Description: as §3

[20] = system: SVMP activity of Crotalus atrox venom; settings: read-out: Inhibition of SVMP enzymatic activity EC50 CAT; C. atrox venom; mean of n ≥ 3, range in brackets
Description: as §1, §2

[21] = physchem; settings: aqueous medium at pH 7.4, pH 7.4, aqueous buffer
Description: as §3

[22] = system: thrombin-antithrombin (TAT) complexes
Description: Blood samples were collected from mice via cardiac puncture immediately following euthanasia. Samples were centrifuged at 1400 × g for 10 min at 4 °C, and the plasma supernatant stored at −80 °C until use. Plasma TAT levels were determined using a sandwich ELISA provided as a commercial kit (Abcam, ab137994). Mouse plasma samples were diluted 1:150 using Diluent M and were run in duplicate alongside a standard curve. Each well received 50 μL diluted plasma and was incubated for 2 h at room temperature to allow for the reaction with the TAT complexes antibodies coated onto the plate. After five washes, 50 μL of biotinylated mouse TAT complexes antibodies were added to the plate and the reaction allowed to proceed for another 2 h. Following another five washes, 50 μL of a streptavidin-peroxidase conjugate were added to the plate and incubated for another 30 min. Next, 50 μL of a chromogenic substrate (3,3′,5,5′-tetramethylbenzidine) was added to the plate and the peroxidase-dependent reaction allowed to proceed until a clear blue color formed in the well. At this point 50 μL of stop solution was added and the absorbance read immediately at 450 and 570 nm. The 570 nm absorbance readings were subtracted from the 450 nm ones, and the levels of TAT complexes (ng/mL) extrapolated based on the standard curve.

[23] = system: E. romani venom; settings: 30 mg/kg single oral dosing; ref not given; cited from earlier work
[24] = system: SVMP activity of Echis romani venom; settings: read-out: ERO EC50; E. romani venom; ref not given; cited from earlier work

## COc1ccc(S(=O)(=O)N2CCN(S(=O)(=O)C3CC3)C[C@@H]2C(=O)NO)cc1 [compound 23, (R)-4-(Cyclopropylsulfonyl)-N-hydroxy-1-((4-methoxyphenyl)sulfonyl)piperazine-2-carboxamide]
[1]
  embryo survival: complete survival
[2]
  EC50: 0.0386 µM
[3]
  logD: 0.2
[4]
  AUC(0-inf): 450 ng·h/mL
  AUC(0-t): 444 ng·h/mL
  Cmax: 311 ng/mL
  MRT inf: 1.61 h
  MRT last: 1.49 h
  Tmax: 0.5 h
  concentration at 4 h: 26.1 ng/mL
  half-life: 1.41 h
[5]
  EC50: 0.0039 µM
[6]
  microsomal CLint: 8.3 µL/min/mg
[7]; 90 μg venom i.p., single 20 mg/kg oral dose, p = 0.01, in words
  survival times vs venom-only: significantly prolonged survival times
[7]; two dose oral regimen 20 mg/kg, 8 h experiment
  mean survival time: 420 min
[7]; two dose oral regimen 20 mg/kg, one of five mice
  time at which the mouse succumbed: 180 min
[8]
  EC50: 0.0109 µM
[9]
  hepatocyte CLint: 13.3 µL/min/1e6 cells
[10]
  EC50: 0.0047 µM
[11]
  protection against prothrombin degradation: almost full protection
[12]
  EC50: 0.0047 to 0.0386 µM
[13]; single 20 mg/kg oral dose, surviving mice
  plasma prothrombin and fibrinogen profiles: intact prothrombin and fibrinogen profiles
[13]; two 20 mg/kg oral doses
  plasma fibrinogen: fibrinogen was detectable in all multiply dosed animals
  plasma prothrombin: Prothrombin was detectable in three of the four surviving mice
[14]; 20 mg/kg oral, 4 h after dosing
  drug level at 4 h as share of C max: 8.4%
[14]; oral dosing
  time for drug levels to reach their peak: 30 min
[15]
  EC50: 0.0134 µM
[16]
  protection against degradation of fibrinogen: protected against the degradation of fibrinogen
[17]
  clotting time: 8.6 min
  maximum clot firmness (MCF): 60.3 [SD 0.6] mm
[18]
  EC50: 0.135 µM
[19]
  Human Protein binding (%free): 66 %free
[20]
  EC50: 0.0229 µM
[21]
  solubility: > 1000 µM
[22]; single 20 mg/kg oral dose, all mice
  TAT levels, mean: 18.6 ng/mL
[22]; single 20 mg/kg oral dose, mice that died during the experiment
  TAT levels, mean: 29.6 ng/mL
[22]; single 20 mg/kg oral dose, the two survivors
  TAT levels, mean: 2.1 ng/mL
[22]; two 20 mg/kg oral doses
  TAT levels, mean: 13.7 ng/mL

## O=S(=O)(O)CC(S)CS (stereo not shown) [DMPS, 2,3-dimercapto-1-propanesulfonic acid]
[23]
  oral dosing murine survival at 8 h: 40%
[24]
  EC50: 1.65 µM
